# Experimental data as given in patent US20200071361A1, “ENGINEERED ANTIMICROBIAL AMPHIPHILIC PEPTIDES AND METHODS OF USE” (priority 2017, published 2020).
# What was measured:
# [1] = test system: Acinetobacter baumannii ATCC 19606 (non-MDR); test: Broth microdilution MIC (Table 2); assay type: cell-based; details: ATCC19606, read-out: MIC
# Procedure: (§1) Each peptide was formulated in PBS buffer prior to testing. Peptides of SEQ ID NO:5 and SEQ ID NO:8 were brought up in 100% DMSO with 0.002% polysorbate-80 at 1.28 mg/mL (40× the highest final test concentration of 32 mcg/mL). Final test concentration of DMSO was 2.5% in the assay at the first dilution for those two compounds.
# (§2) Mueller Hinton II broth (MHB II; BD; Lot Nos. 6258541 and 7143896) was used for MIC testing of aerobic organisms. 0.002% polysorbate 80 (P80) was added to the test medium.
# (§3) MIC values were determined using a broth microdilution procedure described by CLSI (1, 3). Automated liquid handlers (Multidrop 384, Labsystems, Helsinki, Finland; Biomek 2000 and Biomek FX, Beckman Coulter, Fullerton Calif.) were used to conduct serial dilutions and liquid transfers.
# (§4) To prepare the drug mother plates, which would provide the serial peptide dilutions for the replicate daughter plates, the wells of columns 2-12 of standard 96-well microdilution plates (Costar 3795) were filled with 150 μl of the designated diluent for each row of peptide. The test articles and comparator compounds (300 μl at 40× the highest concentration to be tested) were dispensed into the appropriate wells in column 1. The Biomek 2000 was then used to make 2-fold serial dilutions in the mother plates from column 1 through column 11. The wells of Column 12 contained no drug and served as the organism growth control wells for the assay.
# (§5) The daughter plates were loaded with 185 μL per well of MHB II using the Multidrop 384. The daughter plates were completed on the Biomek FX instrument which transferred 5 uL of peptide solution from each well of a mother plate to the corresponding well of each daughter plate in a single step. A standardized inoculum of each test organism was prepared per CLSI methods. The inoculum for each organism was dispensed into sterile reservoirs divided by length (Beckman Coulter), and the Biomek 2000 was used to inoculate the plates. Daughter plates were placed on the Biomek 2000 work surface in reverse orientation so that inoculation took place from low to high drug concentration. The plates were then inoculated with 10 μL of the inoculum resulting in a final cell density of approximately 5×10^5 CFU/mL, per well.
# (§6) Plates were stacked 3-4 high, covered with a lid on the top plate, placed in plastic bags, and incubated at 35° C. for 16 to 20 hrs. Following incubation, the microplates were removed from the incubator and viewed from the bottom using a plate viewer. […] The MIC was read and recorded as the lowest concentration of peptide that inhibited visible growth of the organism.
# [2] = test system: Acinetobacter baumannii ATCC BAA-1797 (MDR); test: Broth microdilution MIC (Table 2); assay type: cell-based; details: ATCCBAA1797, read-out: MIC
# Procedure: as §1, §2, §3, §4, §5, §6
# [3] = test system: Enterococcus faecalis ATCC 29212 (VSE; QC); test: Broth microdilution MIC (Table 2); assay type: cell-based; details: ATCC29212, read-out: MIC
# Procedure: as §1, §2, §3, §4, §5, §6
# [4] = test system: Enterococcus faecalis ATCC 700802 (V583 VRE); test: Broth microdilution MIC (Table 2); assay type: cell-based; details: read-out: MIC
# Procedure: as §1, §2, §3, §4, §5, §6
# [5] = test system: Escherichia coli ATCC 25922 (QC); test: Broth microdilution MIC (Table 2); assay type: cell-based; details: ATCC25922
# Procedure: as §1, §2, §3, §4, §5, §6
# [6] = test system: Escherichia coli ATCC 35218 (ESBL); test: Broth microdilution MIC (Table 2); assay type: cell-based; details: ATCC35218
# Procedure: as §1, §2, §3, §4, §5, §6
# [7] = test system: Pseudomonas aeruginosa ATCC 27853 (non-MDR; QC); test: Broth microdilution MIC (Table 2); assay type: cell-based; details: ATCC27853, read-out: MIC
# Procedure: as §1, §2, §3, §4, §5, §6
# [8] = test system: Pseudomonas aeruginosa ATCC BAA-2109 (MDR); test: Broth microdilution MIC (Table 2); assay type: cell-based; details: ATCCBAA2109
# Procedure: as §1, §2, §3, §4, §5, §6
# [9] = test system: Staphylococcus aureus ATCC 29213 (MSSA; QC); test: Broth microdilution MIC (Table 2); assay type: cell-based; details: read-out: MIC
# Procedure: as §1, §2, §3, §4, §5, §6
# [10] = test system: Streptococcus agalactiae ATCC 13813; test: Broth microdilution MIC (Table 2); assay type: cell-based; details: ATCC13813, read-out: MIC
# Procedure: as §1, §2, §3, §4, §5, §6
# [11] = test system: Streptococcus pyogenes ATCC 49399; test: Broth microdilution MIC (Table 2); assay type: cell-based; details: ATCC49399, read-out: MIC
# Procedure: as §1, §2, §3, §4, §5, §6
# [12] = test system: Acinetobacter spp. isolates (n = 104); test: Broth microdilution MIC, clinical isolate panel; assay type: cell-based; details: Acinetobacter spp. (n = 104)
# Procedure: (§7) Comparator antibiotics were supplied by Micromyx, and stock solutions were prepared on the first day of testing using solvents recommended by CLSI (1). Stock solutions of all compounds were made at 40× the final testing concentration and stored at −80° C. prior to testing. Information regarding compound source, catalog and lot number, testing concentrations and drug diluent for the comparators and test agent are detailed below in Table 3.
# (§8) The test organisms evaluated in this study consisted of clinical isolates from the Micromyx Repository and reference isolates from the American Type Culture Collection (ATCC; Manassas, Va.). The clinical isolates were obtained from USA hospitals. Upon initial receipt at Micromyx, the organisms were sub-cultured onto an appropriate agar medium. Following incubation, colonies were harvested from these plates and cell suspensions prepared and frozen at −80° C. with a cryoprotectant. Prior to testing, the isolates were streaked from frozen vials onto Trypticase Soy Agar with 5% sheep blood (Becton Dickenson [BD]; Sparks, Md.; Lot Nos. 7173618, 7166759, 7208688, 72144895, 7228505 and Remel Lenexa, Kans. Lot No. 212574). Plates were incubated at 35° C. overnight.
# (§9) Mueller Hinton II broth (MHB II; BD; Lot Nos. 6258541 and 7143896) was used for MIC testing of aerobic organisms.
# as §3
# as §4, with “drug” for “peptide”, “drug.” for “peptide.”
# as §5, with “µL” for “uL”, “drug” for “peptide”, “methods (1).” for “methods.”, “concentration.” for “concentration. The plates were then inoculated with 10 μL of the inoculum resulting in a final cell density of approximately 5×10^5 CFU/mL, per well.”
# (§10) Plates were stacked 3-4 high, covered with a lid on the top plate, placed in plastic bags, and incubated at 35° C. for 16 to 20 hrs. Following incubation, the microplates were removed from the incubator and viewed from the bottom using a plate viewer. […] The MIC was read and recorded as the lowest concentration of drug that inhibited visible growth of the organism.
# (§11) Clinical breakpoints to determine percent resistance within a given organism group were obtained from CLSI (3), with the exception of colistin for K. pneumoniae, Enterobacter spp., and E. coli, which are only available from EUCAST.
# [13] = test system: Escherichia coli isolates (n = 101); test: Broth microdilution MIC, clinical isolate panel; assay type: cell-based; details: Escherichia coli (n = 101)
# Procedure: as §7, §8, §9, §3
# as §4, with “drug” for “peptide”, “drug.” for “peptide.”
# as §5, with “µL” for “uL”, “drug” for “peptide”, “methods (1).” for “methods.”, “concentration.” for “concentration. The plates were then inoculated with 10 μL of the inoculum resulting in a final cell density of approximately 5×10^5 CFU/mL, per well.”
# as §10, §11
# [14] = test system: Klebsiella pneumoniae isolates (n = 101); test: Broth microdilution MIC, clinical isolate panel; assay type: cell-based; details: Klebsiella pneumoniae (n = 101)
# Procedure: as §7, §8, §9, §3
# as §4, with “drug” for “peptide”, “drug.” for “peptide.”
# as §5, with “µL” for “uL”, “drug” for “peptide”, “methods (1).” for “methods.”, “concentration.” for “concentration. The plates were then inoculated with 10 μL of the inoculum resulting in a final cell density of approximately 5×10^5 CFU/mL, per well.”
# as §10, §11
# [15] = test system: Pseudomonas aeruginosa isolates (n = 109); test: Broth microdilution MIC, clinical isolate panel; assay type: cell-based
# Procedure: as §7, §8, §9, §3
# as §4, with “drug” for “peptide”, “drug.” for “peptide.”
# as §5, with “µL” for “uL”, “drug” for “peptide”, “methods (1).” for “methods.”, “concentration.” for “concentration. The plates were then inoculated with 10 μL of the inoculum resulting in a final cell density of approximately 5×10^5 CFU/mL, per well.”
# as §10, §11
# [16] = test system: Enterobacter spp. isolates (n = 102); test: Broth microdilution MIC, clinical isolate panel; assay type: cell-based, Enterobacter aerogenes and E. cloacae; details: Enterobacter spp. (n = 102)
# Procedure: as §7, §8, §9, §3
# as §4, with “drug” for “peptide”, “drug.” for “peptide.”
# The daughter plates were loaded with 185 μL per well of MHB II using the Multidrop 384. The daughter plates were completed on the Biomek FX instrument which transferred 5 µL of drug solution from each well of a mother plate to the corresponding well of each daughter plate in a single step. […]
# Plates were stacked 3-4 high, covered with a lid on the top plate, placed in plastic bags, and incubated at 35° C. for 16 to 20 hrs. […] The MIC was read and recorded as the lowest concentration of drug that inhibited visible growth of the organism. […]
smiles,measurement,setting,value
C[C@@H](O)[C@H]1C(=O)N2C(C(=O)O)=C(S[C@@H]3CN[C@H](C(=O)N(C)C)C3)[C@H](C)[C@H]12 [Meropenem],MIC,[1],0.5 µg/mL
same,MIC,[2],0.25 µg/mL
same,MIC,[3],4 µg/mL
same,MIC,[4],4 µg/mL
same,MIC,[5],0.015 µg/mL
same,MIC,[6],0.015 µg/mL
same,MIC,[7],0.25 µg/mL
same,MIC,[8],0.015 µg/mL
same,MIC,[9],0.12 µg/mL
same,MIC,[10],0.008 µg/mL
same,MIC,[11],≤ 0.004 µg/mL
same,MIC50,[12],> 8 µg/mL
same,MIC90,[12],> 8 µg/mL
same,MIC,[12]; read-out: Mode (MIC),> 8 µg/mL
same,"% R (percent of isolates resistant, clinical breakpoints)",[13],1%
same,MIC50,[13],0.015 µg/mL
same,MIC90,[13],0.03 µg/mL
same,MIC,[13]; read-out: Mode (MIC),0.015 µg/mL
same,"% R (percent of isolates resistant, clinical breakpoints)",[14],Fifty percent
same,MIC50,[14],4 µg/mL
same,MIC90,[14],> 8 µg/mL
same,MIC,[14]; read-out: Mode (MIC),> 8 µg/mL
same,MIC50,[15]; Pseudomonas aeruginosa,0.5 µg/mL
same,MIC90,[15]; Pseudomonas aeruginosa,> 8 µg/mL
same,"% R (percent of isolates resistant, clinical breakpoints)",[15]; Pseudomonas aeruginosa (n = 109),20%
same,MIC,"[15]; Pseudomonas aeruginosa, read-out: Mode (MIC)",0.25 µg/mL
same,"% R (percent of isolates resistant, clinical breakpoints)",[16],3.9%
